The values below come from patent publication US10471154B2, “Spirocyclic indolone polyethylene glycol carbonate compound, composition, preparation method and use thereof” (priority 2016, dated 2019).

Marks after values point to notes of the source that are not given here. Some results are limits rather than exact numbers.

Data set [1] can be described thus: Body weights of SJSA-1 implanted nude mice (side effects). The class given is in vivo. On the procedure:
(§1) Tumor cells (SJSA-1) were harvested under aseptic conditions, and were adjusted to a cell density of 1×10^7 cells/ml with sterile physiological saline. 0.2 ml was inoculated under the skin of the axilla of nude mice, and the tumor was grown to have a diameter of 1 cm. The tumor was removed under aseptic conditions and cut into tumor masses with a size of 2.0 mm×2.0 mm, and evenly inoculated under the skin of the axilla of the nude mice. When the tumor volume reached about 250 mm^3 (8 days after inoculation), the animals were administered in groups with 9 mice in each group, and the animals with poor tumor growth were excluded. The control group used physiological saline as a control. […] Body weight was weighted 3 times a week, and the length a and the width b of the tumor were measured with a vernier caliper, and the volume of the tumor was calculated according to the formula V=a×b^2/2, where a is the length of the tumor and b is the width of the tumor. 21 Days after the inoculation, the nude mice were dislocated and photographed, and then the tumor was peeled off, weighed and photographed. RTV (relative tumor volume) and tumor inhibition rate were calculated. At the same time, the peripheral blood of nude mice was taken to count blood cells.
(§2) The data were processed by EXCEL software and expressed by Mean±SD, and the inter-group analysis was statistically processed using t test.

Another data set can be described thus: physchem. The conditions noted are these: 25 °C, water, thermodynamic from solid.
The next data set concerns SJSA-1 xenografted tumor. Description: Inhibitory effect on the growth of SJSA-1 xenografted tumor in nude mice. Type of data set: in vivo. The conditions noted are these: for Inhibition rate (%) on the basis of tumor volume: End. On the procedure: 72 Female Balb/c/nu nude mice (weighting 15-19 g) were provided by Beijing Huafukang BioScience Co., Inc. Certificate No.: SOCK (Beijing) 2014-0004.
(§3) Doxorubicin: prepared in sterile physiological saline at a concentration of 0.3 mg/ml; the administration dosage was 3.0 mg/kg; and the administration volume was 10 ml/kg.
(§4) rac-SIP: prepared in a solvent consisting of 4% DMA, 30% PEG400, and 66% (by volume) sterile distilled water to a solution with a concentration of 1.5 mg/ml; the administration dosage was 30.0 mg/kg, and the administration volume was 20 ml/kg.
(§5) rac-SIP-PEG-2: prepared in a solvent consisting of polyoxyethylene castor oil:95% ethanol:sterile physiological saline (1.5:1.5:7 by volume) to drug solutions with concentrations of 1.5 mg/ml and 3.0 mg/ml. The administration dosages were 15.0 mg/kg and 30.0 mg/kg. The administration volume was 10 ml/kg.
(§6) rac-SIP-PEG-3: prepared in sterile physiological saline to a solution with a concentration of 3.0 mg/ml. The administration dose was 30.0 mg/kg. The administration volume was 10 ml/kg.
(§7) chiral-R-SIP-PEG-3: prepared in sterile physiological saline to a solution with a concentration of 3.0 mg/ml. The administration dose was 30.0 mg/kg. The administration volume was 10 ml/kg.
(§8) rac-SIP-PEG-7: prepared in sterile physiological saline to a solution with a concentration of 3.0 mg/ml. The administration dose was 30.0 mg/kg. The administration volume was 10 ml/kg.
(§9) The administration dose was 50.0 mg/kg. The administration volume was 10 ml/kg.
Doxorubicin: at a dose of 3.0 mg/kg, administered intraperitoneally, once every other day, for a total of 6 times.
rac-SIP: at a dose of 30.0 mg/kg, administered by gavage, once a day, 6 times a week, for a total of 9 times.
rac-SIP-PEG-2: at a dose of 30.0 mg/kg, administered intraperitoneally, once a day, 6 times a week, for a total of 9 times.
rac-SIP-PEG-3: at a dose of 30.0 mg/kg, administered intraperitoneally, once a day, 6 times a week, for a total of 9 times.
chiral-R-SIP-PEG-3: at a dose of 30.0 mg/kg, administered intraperitoneally, once a day, 6 times a week, for a total of 9 times.
rac-SIP-PEG-7: at a dose of 30.0 mg/kg, administered intraperitoneally, once a day, 6 times a week, for a total of 9 times.
as §1, §2

Data set [2] is described as follows: Drug preparation: dissolving in physiological saline. Type of data set: physicochemical. The conditions noted are these: 3.0 mg/ml (Example 14: 5.0 mg/ml) in sterile physiological saline. As to the method: as §3, §4, §5, §6, §7, §8, §9
Setting [3] is: End (21 days after inoculation), doxorubicin 3.0 mg/kg i.p. x6, rac-SIP 30.0 mg/kg gavage x9, SIP-PEG compounds 30.0 mg/kg i.p. x9, rac-SIP-MPEG-2000 50.0 mg/kg i.p. x9.
Setting [4] is: vs saline control, doses and routes as in E5.

On to `COCCOCCOCCOC(=O)OC(C)OC(=O)c1ccc(NC(=O)[C@@H]2N[C@@H](CC(C)(C)C)[C@@]3(C(=O)Nc4cc(Cl)ccc43)[C@H]2c2cccc(Cl)c2F)c(OC)c1` (single isomer, unassigned) [chiral-R-SIP-PEG-3], for which the “body weight increased, compared with the solvent control group” value in data set [1] (30.0 mg/kg i.p.) was “about 11%”. The “Body Weights X ± SD (g), End” value in data set [1] (setting [3]) is recorded as 19.2 ± 1.2 g. Also, the “Body Weights X ± SD (g), Start” value in data set [1] (Start of administration, dose per group 3.0/30.0/50.0 mg/kg as in Table 1) came out at 17.3 ± 0.9 g. The same compound registered a solubility at 24 h in the data set “physchem” of more than 8000 µg/mL. Moreover, the “Tumor volumes X ± SD (mm^3), End” value in the data set with SJSA-1 xenografted tumor (setting [3]) is reported as 59.4 ± 46.3*** mm^3. Further, the “Tumor volumes X ± SD (mm^3), Start” value with SJSA-1 xenografted tumor (Start of administration (8 days after inoculation)) is given as 252.9 ± 68.3 mm^3. The “inhibitory effect on tumor growth compared with PEG-free rac-SIP given by gastrointestinal administration” value in the data set on SJSA-1 xenografted tumor (administered by injection, 30.0 mg/kg (rac-SIP-MPEG-2000 50.0 mg/kg)) is recorded as “stronger inhibitory effect”. For the same compound, the “Weights of Tumor X ± SD” value in the data set on SJSA-1 xenografted tumor (tumor peeled off 21 days after inoculation, doses and routes as in E5) worked out at 0.06 ± 0.05 g. Besides, in the data set with SJSA-1 xenografted tumor (setting [4]), the “Inhibition rate (%) on the basis of tumor volume” value was found to be 97.90% and the “Inhibition rate (%) on the basis of tumor weight” value came to 97.84%. Besides, the “Inhibition rate (%) on the basis of tumor volume” value with SJSA-1 xenografted tumor (vs saline control, doses and routes as in E5, listed as chiral-R-PEG-3) is 97.9%. Also, in data set [2], the “dissolving in physiological saline for administration” value is recorded as “could be directly dissolved in physiological saline”.

As a reminder, the solubility is the dissolved amount per volume that the medium holds. Lower therefore signals little dissolved substance.
